The source of these data is patent US6146853A, “Cyclic depsipeptide PF 1022G” (Meiji Seika Kaisha Ltd., priority 1996, dated 2000).

A short description of data set [1]: Solubilities (physico-chemical properties). The class given is physicochemical.
The nature of data set [2]: Anthelmintic activities (general statement). Particulars: no parasite or test named.

Regarding `CC(C)C[C@H]1C(=O)O[C@H](C)C(=O)N(C)[C@@H](CC(C)C)C(=O)O[C@H](C)C(=O)N(C)[C@@H](CC(C)C)C(=O)O[C@H](C)C(=O)N(C)[C@@H](CC(C)C)C(=O)O[C@H](C)C(=O)N1C` [PF 1022F substance], the “Solubilities: soluble in” value in data set [1] (chloroform, acetone, ethyl acetate, methanol and dimethylsulfoxide) is “Soluble”. The “Solubilities: insoluble in” value in data set [1] (water and n-hexane) is given as “Insoluble”. The solubility in water result in data set [1] (water, statement in the recovery description) is given as “insoluble in water”. Besides, the anthelmintic activities entry in data set [2] is recorded as “having anthelmintic activities”.
